pIC50: −log10 of the molar value.
How the values were obtained:
human TLR9 (hTLR9) = molecular target: T1, human TLR9 (hTLR9) (Homo sapiens, UniProt Q9NR96); assay: TLR9 antagonist assay (HEK-Blue-hTLR9 cells, NF-kB/AP-1 driven SEAP reporter, ODN 2006 agonist); assay type: cell-based; settings: 1 hour compound pre-incubation, then hTLR9 agonist (such as ODN 2006, 1 uM) overnight, SEAP read at 620 nm, 4 parameter Hill fit, read-out: hTLR9 antagonism IC50
T1 construct: host or cells: HEK293 (HEK-Blue-hTLR9)
T1 sequence (Q9NR96 26-1032): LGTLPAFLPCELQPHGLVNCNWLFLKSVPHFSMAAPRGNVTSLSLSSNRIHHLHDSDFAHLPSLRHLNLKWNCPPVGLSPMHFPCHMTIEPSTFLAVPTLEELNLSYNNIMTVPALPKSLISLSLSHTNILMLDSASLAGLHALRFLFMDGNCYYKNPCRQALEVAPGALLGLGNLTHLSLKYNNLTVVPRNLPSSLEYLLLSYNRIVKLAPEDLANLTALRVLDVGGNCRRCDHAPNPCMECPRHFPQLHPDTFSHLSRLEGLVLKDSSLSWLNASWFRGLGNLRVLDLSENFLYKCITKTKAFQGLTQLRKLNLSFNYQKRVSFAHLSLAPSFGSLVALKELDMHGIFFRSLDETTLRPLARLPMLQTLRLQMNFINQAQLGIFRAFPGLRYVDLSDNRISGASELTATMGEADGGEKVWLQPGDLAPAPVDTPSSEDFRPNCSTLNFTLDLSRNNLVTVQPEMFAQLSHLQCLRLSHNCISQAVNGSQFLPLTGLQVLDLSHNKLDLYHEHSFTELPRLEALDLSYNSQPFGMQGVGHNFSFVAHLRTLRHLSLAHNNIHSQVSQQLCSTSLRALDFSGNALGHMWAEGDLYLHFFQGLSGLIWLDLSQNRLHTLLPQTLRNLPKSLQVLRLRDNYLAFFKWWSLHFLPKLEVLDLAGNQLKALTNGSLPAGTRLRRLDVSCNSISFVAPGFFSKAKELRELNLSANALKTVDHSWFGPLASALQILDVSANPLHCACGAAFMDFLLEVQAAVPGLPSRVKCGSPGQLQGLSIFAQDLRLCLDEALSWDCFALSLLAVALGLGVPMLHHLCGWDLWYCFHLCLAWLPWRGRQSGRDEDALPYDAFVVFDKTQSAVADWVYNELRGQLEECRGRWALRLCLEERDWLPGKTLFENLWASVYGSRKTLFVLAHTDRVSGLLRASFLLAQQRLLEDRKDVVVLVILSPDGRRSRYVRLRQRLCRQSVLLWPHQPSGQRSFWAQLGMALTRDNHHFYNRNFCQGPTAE
Description: HEK-Blue™-hTLR9 cells were obtained from InvivoGen Inc. and used to determine test compound antagonism of human TLR9 (hTLR9) driven responses. HEK-Blue™-hTLR9 cells are designed for studying the stimulation of human TLR9 by monitoring the activation of NF-kB. As described by the manufacturer, “HEK-Blue™-hTLR9 cells were obtained by co-transfection of the hTLR9 gene and an optimized secreted embryonic alkaline phosphatase (SEAP) reporter gene into HEK293 cells. The SEAP reporter gene is placed under the control of the IFN-b minimal promoter fused to five NF-kB and AP-1 binding sites. Stimulation with a TLR9 ligand activates NF-kB and AP-1 which induces the production of SEAP. Levels of SEAP can be easily determined with QUANTI-Blue™ a detection medium that turns purple/blue in the presence of alkaline phosphatase”.
A cell suspension of HEK-Blue™-hTLR9 cells at ˜450,000 cells per ml in test medium which contained 5% (v/v) heat inactivated FBS was prepared. 180 ul of cell suspension (˜80,000 cells) was added per well of a flat-bottom 96-well plate and place in an incubator at 37° C. for overnight.
Test compounds were serially diluted in test medium, generally starting at 10 uM, and diluting by 3 fold in a 96 well master plate. 20 ul of diluted test compound was transferred using a 12 channel multi-channel pipet to the cell plate and incubated at 37° C. for 1 hour. Then 20 ul of an hTLR9 agonist (such as ODN 2006, 1 uM) was added to each well and the plate incubated at 37° C. overnight.
Invivogen's QUANTI-Blue™ was prepared following the manufacturer's instructions. […] of resuspended QUANTI-Blue™ was added per well of a flat bottom 96-well plate. 20 ul per well of induced HEK-Blue™-hTLR9 cells supernatant was then added to the plate and the plate was incubated at 37° C. for 1-3 h. SEAP levels were determined using a spectrophotometer at 620 nm.
The concentration dependent inhibition of hTLR9 dependent SEAP production was expressed as the concentration of compound which produced half the maximal level of SEAP induced by the hTLR agonist alone. Percent activity was calculated for each observation using the formula: % activity=((observed O.D.−background O.D.)/(agonist only O.D.−background O.D.))*100. The 50% inhibitory concentration (IC50) (Table 3) was calculated by using a 4 parameter Hill plot sigmoidal curve fit where the inflection point of the sigmoidal curve is defined as the point of 50% activity.

TLR9 = molecular target: T2, TLR9 (Mus musculus, UniProt Q9EQU3); assay: In vivo TLR antagonism: serum IL-12 after CpG ODN 1668 TLR9 agonist injection, single intraperitoneal dose to male C57Bl/6 mice; parameters: species or system C57Bl/6J mouse; settings: male C57Bl/6J mice; test article i.p. at T=0 hr; CpG ODN 1668 i.p. at T=1 hr; serum IL-12 ELISA at T=4 hr; doses 400 ug to 10 ug
T2 construct: Male C57Bl/6J mice, at ˜8 weeks of age from Jackson Laboratories were used; tissue Jackson Laboratories; host or cells: whole animal, male C57Bl/6J mouse
T2 sequence (Q9EQU3 26-1032): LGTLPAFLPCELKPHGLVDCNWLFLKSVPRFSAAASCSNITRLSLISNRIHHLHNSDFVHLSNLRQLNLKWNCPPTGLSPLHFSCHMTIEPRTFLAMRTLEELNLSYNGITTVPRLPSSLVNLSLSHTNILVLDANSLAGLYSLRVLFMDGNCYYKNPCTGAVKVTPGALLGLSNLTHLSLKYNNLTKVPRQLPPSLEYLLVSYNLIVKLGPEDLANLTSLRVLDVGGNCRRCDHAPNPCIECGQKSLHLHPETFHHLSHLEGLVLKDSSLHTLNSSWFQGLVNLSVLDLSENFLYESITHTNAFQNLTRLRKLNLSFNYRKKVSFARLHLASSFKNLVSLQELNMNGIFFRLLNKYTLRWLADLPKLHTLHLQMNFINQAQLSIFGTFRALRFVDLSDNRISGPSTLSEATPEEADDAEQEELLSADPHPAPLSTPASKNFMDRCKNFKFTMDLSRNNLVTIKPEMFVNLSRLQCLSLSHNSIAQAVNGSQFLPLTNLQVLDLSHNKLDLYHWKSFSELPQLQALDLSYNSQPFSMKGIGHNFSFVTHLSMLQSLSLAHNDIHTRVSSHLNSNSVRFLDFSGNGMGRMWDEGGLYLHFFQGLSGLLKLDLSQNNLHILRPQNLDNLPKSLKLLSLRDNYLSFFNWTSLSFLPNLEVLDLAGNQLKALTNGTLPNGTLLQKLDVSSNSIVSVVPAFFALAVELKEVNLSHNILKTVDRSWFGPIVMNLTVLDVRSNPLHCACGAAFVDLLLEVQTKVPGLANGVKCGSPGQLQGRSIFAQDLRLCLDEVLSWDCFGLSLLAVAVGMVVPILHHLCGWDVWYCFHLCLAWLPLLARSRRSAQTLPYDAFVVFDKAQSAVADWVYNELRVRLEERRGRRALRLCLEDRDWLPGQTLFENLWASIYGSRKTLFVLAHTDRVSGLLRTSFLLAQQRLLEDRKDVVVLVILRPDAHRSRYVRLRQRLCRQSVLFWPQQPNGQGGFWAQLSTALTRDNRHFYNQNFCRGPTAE
Experimental: The Effects of test articles on Toll-Like Receptor (TLR) Knockdown Following a Single Intraperitoneal Dose to Male C57Bl/6 Mice.
Toll-Like Receptor (TLR) knockdown effect of test articles was evaluated in a C57Bl/6J mouse. Primary end points included a terminal blood collection for analysis of cytokine production in response to CpG-DNA TLR9 agonist injection. Male C57Bl/6J mice, at ˜8 weeks of age from Jackson Laboratories were used. Test groups were 3 mice per treatment group and the groups were administered test article in a series of descending doses within the range of 400 ug to 10 ug. Test article treatment was dosed at T=0 hr by intraperitoneal injection. Agonist (CpG ODN 1668) treatment was dosed one hour later, T=1 hr by intraperitoneal injection. Necropsy was performed 3 hours post agonist treatment, T=4 hr. Blood samples were collected into serum separator tubes, allowed to clot at room temperature for at least 20 minutes, centrifuged at ambient temperature at 3000 g for 10 minutes, and the serum was extracted. ELISA was performed to determine murine IL-12 levels following manufacture's protocol (BioLegend Inc.). Serum IL-12 levels were calculated and plotted versus administered dose of antagonist and inhibitory dose at 50% (ID50) was determined.

SMILES	pIC50 (human TLR9 (hTLR9))	In vivo TLR antagonism ID50 (inhibitory dose at 50% of serum IL-12) (TLR9) [µg]
CCOCc1nc2c(N(C)CCN(C)C)nc3ccccc3c2n1CCN1CCOCC1 [Compound 60]	5.47	–
CCOCc1nc2c(N(C)CCN(C)C)nc3ccccc3c2n1CCN(C)C [Compound 61]	6.41	–
CCOCc1nc2c(N(C)CCN(C)C)nc3ccccc3c2n1CCOCCO [Compound 63]	5.47	–
CN(C)CCN(C)c1nc2ccccc2c2c1ncn2CCN(C)C [Compound 67]	6.84	1262
CN(C)CCN(C)c1nc2ccccc2c2c1nc(O)n2CCN(C)C [Compound 68]	6.87	280
CN(C)CCN(C)c1nc2ccccc2c2c1nc(O)n2CCc1c[nH]cn1 [Compound 69]	5.78	–

Continued, values first:

pIC50 (human TLR9 (hTLR9))	In vivo TLR antagonism ID50 (inhibitory dose at 50% of serum IL-12) (TLR9) [µg]	SMILES
6.15	–	CCOCc1nc2c(N3CCN(C)CC3)nc3ccccc3c2n1CCN(C)C [Compound 62]
5.17	–	CCOCc1nc2c(N3CCN(C)CC3)nc3ccccc3c2n1CCOCCO [Compound 64]
7.25	67	CCOCc1nc2c(N(C)CCN(C)C)nc3ccccc3c2n1CCN1CCN(C)CC1 [Compound 65]
6.49	–	CCOCc1nc2c(N3CCN(C)CC3)nc3ccccc3c2n1CCN1CCN(C)CC1 [Compound 66]
